Measurements from the supplement of paper PMC10307832.

How the values were obtained:
Assay in all cases: relative viability (nuclei count vs DMSO), 5 days (fraction); higher = more cells survive
BMX-IN-1 + Dasatinib = compound: C=CC(=O)Nc1cc(-n2c(=O)ccc3cnc4ccc(-c5ccc(NS(C)(=O)=O)cc5)cc4c32)ccc1C [BMX-IN-1] + Cc1nc(Nc2ncc(C(=O)Nc3c(C)cccc3Cl)s2)cc(N2CCN(CCO)CC2)n1 [Dasatinib] (partner 0.075 µM)
How it was run: (§1)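 Relative viability equals treated-well nuclei counts divided by vehicle-well nuclei counts. Counts came from 4× images of lung cancer cell lines grown in 1536-well plates for 5 days after pin-tool dosing on the day after seeding. Dosing used one drug alone or a fixed anchor-drug dose plus five library-drug doses (not always all listed) in √10 steps, and values are medians of duplicate plates.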

PAC-1 + Pemetrexed = compound: C=CCc1cccc(/C=N/NC(=O)CN2CCN(Cc3ccccc3)CC2)c1O [PAC-1] + Nc1nc2[nH]cc(CCc3ccc(C(=O)N[C@@H](CCC(=O)O)C(=O)O)cc3)c2c(=O)[nH]1 [Pemetrexed] (partner 0.2 µM)
How it was run: as §1

BMX-IN-1 + Decitabine = compound: C=CC(=O)Nc1cc(-n2c(=O)ccc3cnc4ccc(-c5ccc(NS(C)(=O)=O)cc5)cc4c32)ccc1C [BMX-IN-1] + Nc1ncn([C@H]2C[C@H](O)[C@@H](CO)O2)c(=O)n1 [Decitabine] (partner 2 µM)
How it was run: as §1

BMX-IN-1 + Linsitinib = compound: C=CC(=O)Nc1cc(-n2c(=O)ccc3cnc4ccc(-c5ccc(NS(C)(=O)=O)cc5)cc4c32)ccc1C [BMX-IN-1] + C[C@]1(O)C[C@@H](c2nc(-c3ccc4ccc(-c5ccccc5)nc4c3)c3c(N)nccn32)C1 [Linsitinib] (partner 1 µM)
How it was run: as §1

Question: Which relative viability (BMX-IN-1 + Dasatinib; first compound 0.02 µM) does the source give for SK-MES-1 here?
Answer: 0.43

Question: And the relative viability (BMX-IN-1 + Dasatinib; first compound 0.2 µM)?
Answer: 0.317

Question: And the relative viability (BMX-IN-1 + Dasatinib; first compound 0.6325 µM)?
Answer: 0.337

Question: What about the relative viability (BMX-IN-1 + Dasatinib; first compound 2 µM) of the same cell line?
Answer: 0.34

Question: What about the relative viability (PAC-1 + Pemetrexed; first compound 0.02 µM) of the same cell line?
Answer: 0.939

Question: And the relative viability (PAC-1 + Pemetrexed; first compound 0.06325 µM)?
Answer: 1.02

Question: What about the relative viability (PAC-1 + Pemetrexed; first compound 0.2 µM) of the same cell line?
Answer: 0.889

Question: And the relative viability (PAC-1 + Pemetrexed; first compound 2 µM)?
Answer: 0.971

Question: What about the relative viability (BMX-IN-1 + Decitabine; first compound 0.02 µM) of the same cell line?
Answer: 0.398

Question: And the relative viability (BMX-IN-1 + Decitabine; first compound 0.2 µM)?
Answer: 0.432

Question: And the relative viability (BMX-IN-1 + Decitabine; first compound 0.6325 µM)?
Answer: 0.425

Question: What about the relative viability (BMX-IN-1 + Decitabine; first compound 2 µM) of the same cell line?
Answer: 0.637

Question: And the relative viability (BMX-IN-1 + Linsitinib; first compound 0.02 µM)?
Answer: 1.11

Question: What about the relative viability (BMX-IN-1 + Linsitinib; first compound 0.2 µM) of the same cell line?
Answer: 1.06

Question: What about the relative viability (BMX-IN-1 + Linsitinib; first compound 0.6325 µM) of the same cell line?
Answer: 1.15

Question: And the relative viability (BMX-IN-1 + Linsitinib; first compound 2 µM)?
Answer: 1.07
